Consider seven compounds from patent US9999619B2, “Piperidin-4-yl azetidine derivatives as JAK1 inhibitors” (Incyte Corporation, priority 2010, dated 2018).

What all share (assay type): biochemical
Experiment [1] has as its target human JAK1 (a.a. 837-1142). The experiment can be described thus: In vitro JAK kinase assay (HTRF, phosphorylation of a biotinylated peptide), JAK1. The following applies: ratio of JAK2 IC50 to JAK1 IC50, measured at 1 mM ATP. A digest of the protocol:
(§1)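 N-terminal His-tagged catalytic domains, baculovirus-expressed in insect cells, phosphorylated a biotinylated peptide for 1 hr at room temperature. EDTA stop was followed by SA-APC and Eu-Py20 antibody for 40 minutes, with phosphopeptide read by HTRF.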
In general terms: In TR-FRET formats the signal depends on donor and acceptor labels being close together.

In experiment [2] the target is human JAK1 (a.a. 837-1142) (Homo sapiens, UniProt P23458). The description is as above. The following applies: measured at 1 mM ATP. A digest of the protocol:
as §1

In experiment [3] the target is Jak2 (a.a. 828-1132) (Homo sapiens (Human), UniProt O60674). Nature of the experiment: In vitro JAK kinase assay (HTRF, phosphorylation of a biotinylated peptide), JAK2. The following applies: measured at 1 mM ATP. Put shortly:
as §1

Jak2 (a.a. 828-1132), sequence (O60674 828-1132): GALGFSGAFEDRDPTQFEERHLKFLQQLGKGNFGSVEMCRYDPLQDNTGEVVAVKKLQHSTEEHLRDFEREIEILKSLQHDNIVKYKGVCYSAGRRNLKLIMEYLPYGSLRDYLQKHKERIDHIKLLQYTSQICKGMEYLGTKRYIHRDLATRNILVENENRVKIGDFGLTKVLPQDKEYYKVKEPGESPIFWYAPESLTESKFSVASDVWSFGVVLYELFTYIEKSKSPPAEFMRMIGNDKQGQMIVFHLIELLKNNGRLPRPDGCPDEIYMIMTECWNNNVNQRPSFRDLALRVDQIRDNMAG

With `N#CCC1(n2cc(-c3ncnc4[nH]ccc34)cn2)CN(C2CCN(C(=O)OCc3ccccc3)CC2)C1` [Example 389, benzyl 4-{3-(cyanomethyl)-3-[4-(7H-pyrrolo[2,3-d]pyrimidin-4-yl)-1H-pyrazol-1-yl]azetidin-1-yl}piperidine-1-carboxylate], in experiment [1], the “IC50 Ratio JAK2/JAK1” value is 6.5. The IC50 (as a rule, the midpoint of a concentration-inhibition curve) was at most 5 nM in experiment [2] and 10 to 50 nM in experiment [3].
For `CC(C)COC(=O)N1CCC(N2CC(CC#N)(n3cc(-c4ncnc5[nH]ccc45)cn3)C2)CC1` [Example 390, isobutyl 4-{3-(cyanomethyl)-3-[4-(7H-pyrrolo[2,3-d]pyrimidin-4-yl)-1H-pyrazol-1-yl]azetidin-1-yl}piperidine-1-carboxylate], the “IC50 Ratio JAK2/JAK1” value in experiment [1] is recorded as 8.3. The half-inhibitory concentration (IC50) in experiment [2] is at most 5 nM; in experiment [3] it was 10 to 50 nM.
`N#CCC1(n2cc(-c3ncnc4[nH]ccc34)cn2)CN(C2CCN(C(=O)OCC3CC3)CC2)C1` [Example 391, cyclopropylmethyl 4-{3-(cyanomethyl)-3-[4-(7H-pyrrolo[2,3-d]pyrimidin-4-yl)-1H-pyrazol-1-yl]azetidin-1-yl}piperidine-1-carboxylate]: the “IC50 Ratio JAK2/JAK1” value in experiment [1] came to 10.6. Moreover, the results for the half-maximal inhibitory concentration (IC50) in experiment [2] and in experiment [3] were 5 to 20 nM and 50 to 100 nM, respectively.
Taken in the same sequence, the figures for `CC1(COC(=O)N2CCC(N3CC(CC#N)(n4cc(-c5ncnc6[nH]ccc56)cn4)C3)CC2)CC1` [Example 392, (1-methylcyclopropyl)methyl 4-{3-(cyanomethyl)-3-[4-(7H-pyrrolo[2,3-d]pyrimidin-4-yl)-1H-pyrazol-1-yl]azetidin-1-yl}piperidine-1-carboxylate] were 5.6, 5 to 20 nM and 10 to 50 nM.
With `N#CCC1(n2cc(-c3ncnc4[nH]ccc34)cn2)CN(C2CCN(C(=O)OCc3ccc(F)cc3F)CC2)C1` [Example 393, 2,4-difluorobenzyl 4-{3-(cyanomethyl)-3-[4-(7H-pyrrolo[2,3-d]pyrimidin-4-yl)-1H-pyrazol-1-yl]azetidin-1-yl}piperidine-1-carboxylate], the “IC50 Ratio JAK2/JAK1” value in experiment [1] is given as 7.1. In addition, the IC50 in experiment [2] was at most 5 nM; in experiment [3], 10 to 50 nM.
In the case of `N#CCC1(n2cc(-c3ncnc4[nH]ccc34)cn2)CN(C2CCN(C(=O)OCc3ccc(F)c(F)c3)CC2)C1` [Example 394, 3,4-difluorobenzyl 4-{3-(cyanomethyl)-3-[4-(7H-pyrrolo[2,3-d]pyrimidin-4-yl)-1H-pyrazol-1-yl]azetidin-1-yl}piperidine-1-carboxylate], the “IC50 Ratio JAK2/JAK1” value in experiment [1] is given as 11.1. Besides, the values for the IC50 in experiment [2] and in experiment [3] were 5 to 20 nM and 50 to 100 nM, respectively.
As for `N#CCC1(n2cc(-c3ncnc4[nH]ccc34)cn2)CN(C2CCN(C(=O)OCc3cc(F)cc(F)c3)CC2)C1` [Example 395, 3,5-difluorobenzyl 4-{3-(cyanomethyl)-3-[4-(7H-pyrrolo[2,3-d]pyrimidin-4-yl)-1H-pyrazol-1-yl]azetidin-1-yl}piperidine-1-carboxylate], the “IC50 Ratio JAK2/JAK1” value in experiment [1] came out at 24.4. For the same compound, the 50% inhibitory concentration (IC50) is at most 5 nM in experiment [2] and 50 to 100 nM in experiment [3].
